# Assay results as given in patent US11345681B1, “Inhibitors of fibroblast growth factor receptor kinases” (Kinnate Biopharma Inc., priority 2020, dated 2022).
# Biological target: Wild type FGFR2 (Homo sapiens (Human), UniProt P21802)
# Assay: FGFR2 kinase assay (fluorescence-based microfluidic mobility shift assay)
# Assay type: biochemical
# Settings: wild type FGFR2 0.06 nM, 100 μM ATP, 80 minutes at room temperature; class symbols
# Chain of Wild type FGFR2 (P21802 22-821): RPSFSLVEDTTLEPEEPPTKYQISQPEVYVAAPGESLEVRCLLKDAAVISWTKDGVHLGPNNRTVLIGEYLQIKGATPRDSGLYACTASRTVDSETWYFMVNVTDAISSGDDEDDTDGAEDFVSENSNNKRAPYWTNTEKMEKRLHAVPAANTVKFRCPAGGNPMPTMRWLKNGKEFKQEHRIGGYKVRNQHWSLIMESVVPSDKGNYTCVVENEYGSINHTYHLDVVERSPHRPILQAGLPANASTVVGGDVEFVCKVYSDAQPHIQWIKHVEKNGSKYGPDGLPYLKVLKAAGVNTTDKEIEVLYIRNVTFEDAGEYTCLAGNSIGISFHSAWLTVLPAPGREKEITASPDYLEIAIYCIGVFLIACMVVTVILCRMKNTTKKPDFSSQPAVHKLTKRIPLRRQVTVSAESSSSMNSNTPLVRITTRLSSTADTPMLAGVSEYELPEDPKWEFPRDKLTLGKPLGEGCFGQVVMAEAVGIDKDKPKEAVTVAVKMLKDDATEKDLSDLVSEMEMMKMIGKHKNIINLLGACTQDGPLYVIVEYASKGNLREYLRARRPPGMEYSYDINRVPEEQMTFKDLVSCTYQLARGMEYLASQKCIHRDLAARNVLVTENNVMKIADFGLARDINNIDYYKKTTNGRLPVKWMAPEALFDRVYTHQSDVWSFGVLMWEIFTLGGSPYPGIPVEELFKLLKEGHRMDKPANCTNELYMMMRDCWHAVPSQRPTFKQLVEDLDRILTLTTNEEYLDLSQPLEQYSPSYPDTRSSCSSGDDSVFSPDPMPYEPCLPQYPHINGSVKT
row,Structure (SMILES),IC50 [µM]
1,"C=CC(=O)N1C[C@@H](n2nc(C#Cc3cc4nc(C)n(C)c4c(F)c3F)c(C(N)=O)c2NC)C[C@@H]1COC [Example 127, 3-[2-(6,7-Difluoro-1,2-dimethyl-1,3-benzodiazol-5-yl)ethynyl]-1-[(3S,5R)-5-(methoxymethyl)-1-(prop-2-enoyl)pyrrolidin-3-yl]-5-(methylamino) pyrazole-4-carboxamide]",≤ 0.1
2,"C=CC(=O)N1C[C@@H](n2nc(C#Cc3cc4nc(C)n(C)c4c(F)c3Cl)c(C(N)=O)c2NC)C[C@@H]1COC [Example 128, 3-[2-(6-Chloro-7-fluoro-1,2-dimethyl-1,3-benzodiazol-5-yl)ethynyl]-1-[(3S,5R)-5-(methoxymethyl)-1-(prop-2-enoyl)pyrrolidin-3-yl]-5-(methylamino)pyrazole-4-carboxamide]",≤ 0.1
3,"C=C(F)C(=O)N1C[C@@H](n2nc(C#Cc3cc4ncn(CC)c4cc3Cl)c(C(N)=O)c2NC)C[C@@H]1COC [Example 129, 3-[2-(6-Chloro-1-ethyl-1,3-benzodiazol-5-yl)ethynyl]-1-[(3S,5R)-1-(2-fluoroprop-2-enoyl)-5-(methoxymethyl)pyrrolidin-3-yl]-5-(methylamino)pyrazole-4-carboxamide]",0.1 to 1
4,"C=CC(=O)N1C[C@@H](n2nc(C#Cc3cc4ncnn4cc3F)c(C(N)=O)c2NC)C[C@@H]1COC [Example 130, 3-(2-[6-Fluoro-[1,2,4]triazolo[1,5-a]pyridin-7-yl]-ethynyl)-1-[(3S,5R)-5-(methoxymethyl)-1-(prop-2-enoyl)pyrrolidin-3-yl]-5-(methylamino)pyrazole-4-carboxamide]",≤ 0.1
5,"C=CC(=O)N1C[C@@H](n2nc(C#Cc3cc4nccn4cc3F)c(C(N)=O)c2NC)C[C@@H]1COC [Example 132, 1-((3S,5R)-1-Acryloyl-5-(methoxymethyl)pyrrolidin-3-yl)-3-((6-fluoroimidazo[1,2-a]pyridin-7-yl)ethynyl)-5-(methylamino)-1H-pyrazole-4-carboxamide]",≤ 0.1
6,"C=CC(=O)N1C[C@@H](n2nc(C#Cc3c(Cl)cc4c(nc(C)n4C)c3F)c(C(N)=O)c2NC)C[C@@H]1COC [Example 133, 3-[2-(6-Chloro-4-fluoro-1,2-dimethyl-1,3-benzodiazol-5-yl)ethynyl]-1-[(3S,5R)-5-(methoxymethyl)-1-(prop-2-enoyl)pyrrolidin-3-yl]-5-(methylamino)pyrazole-4-carboxamide]",≤ 0.1
7,"CC#CC(=O)N1C[C@@H](n2nc(C#Cc3c(F)cc4c(ncn4CC)c3F)c(C(N)=O)c2NC)C[C@@H]1COC [Example 137, 1-[(3S,5R)-1-(but-2-ynoyl)-5-(methoxymethyl)pyrrolidin-3-yl]-3-[2-(1-ethyl-4,6-difluoro-1,3-benzodiazol-5-yl)ethynyl]-5-(methylamino)pyrazole-4-carboxamide]",≤ 0.1
8,"[2H]C([2H])([2H])OC[C@H]1C[C@H](n2nc(C#Cc3cc4ncn(CC)c4cc3Cl)c(C(N)=O)c2NC)CN1C(=O)C=C [Example 138, 1-((3S,5R)-1-acryloyl-5-((methoxy-d3)methyl)pyrrolidin-3-yl)-3-((6-chloro-1-ethyl-1H-benzo[d]imidazol-5-yl)ethynyl)-5-(methylamino)-1H-pyrazole-4-carboxamide]",≤ 0.1
9,"C=CC(=O)N1C[C@@H](n2nc(C#Cc3cc4ncn(C5CC5)c4c(F)c3Cl)c(C(N)=O)c2NC)C[C@@H]1COC [Example 147, 3-[2-(6-Chloro-1-cyclopropyl-7-fluoro-1,3-benzodiazol-5-yl)ethynyl]-1-[(3S,5R)-5-(methoxymethyl)-1-(prop-2-enoyl)pyrrolidin-3-yl]-5-(methylamino)pyrazole-4-carboxamide]",≤ 0.1
10,"C=CC(=O)N1C[C@@H](n2nc(C#Cc3c(F)c(F)c4c(nc(C)n4C)c3F)c(C(N)=O)c2NC)C[C@@H]1COC [Example 149, 1-[(3S,5R)-5-(Methoxymethyl)-1-(prop-2-enoyl)pyrrolidin-3-yl]-5-(methylamino)-3-[2-(4,6,7-trifluoro-1,2-dimethyl-1,3-benzodiazol-5-yl)ethynyl]pyrazole-4-carboxamide]",≤ 0.1
11,"C=CC(=O)N1C[C@@H](n2nc(C#Cc3cc4nc(C)n(C5CC5)c4cc3F)c(C(N)=O)c2NC)C[C@@H]1COC [Example 150, 3-[2-(1-Cyclopropyl-6-fluoro-2-methyl-1,3-benzodiazol-5-yl)ethynyl]-1-[(3S,5R)-5-(methoxymethyl)-1-(prop-2-enoyl)pyrrolidin-3-yl]-5-(methylamino)pyrazole-4-carboxamide]",≤ 0.1
12,"C=CC(=O)N1C[C@@H](n2nc(C#Cc3c(F)c(F)c4c(ncn4C4CC4)c3F)c(C(N)=O)c2NC)C[C@@H]1COC [Example 153, 3-[2-(1-cyclopropyl-4,6,7-trifluoro-1,3-benzodiazol-5-yl)ethynyl]-1-[(3S,5R)-5-(methoxymethyl)-1-(prop-2-enoyl)pyrrolidin-3-yl]-5-(methylamino)pyrazole-4-carboxamide]",≤ 0.1
13,"C=CC(=O)N1C[C@@H](n2nc(C#Cc3cc4ncn(CC)c4c(F)c3F)c(C(N)=O)c2NC)C[C@@H]1COC(F)F [Example 154, 1-[(3S,5R)-5-[(Difluoromethoxy)methyl]-1-(prop-2-enoyl)pyrrolidin-3-yl]-3-[2-(1-ethyl-6,7-difluoro-1,3-benzodiazol-5-yl)ethynyl]-5-(methylamino)pyrazole-4-carboxamide]",≤ 0.1
14,"C=CC(=O)N1C[C@@H](n2nc(C#Cc3ccc4c(c3)ncn4C3CC3)c(C(N)=O)c2NC)C[C@@H]1COC(F)F [Example 155, 3-[2-(1-Cyclopropyl-1,3-benzodiazol-5-yl)ethynyl]-1-[(3S,5R)-5-[(difluoromethoxy)methyl]-1-(prop-2-enoyl)pyrrolidin-3-yl]-5-(methylamino)pyrazole-4-carboxamide]",≤ 0.1
15,"C=CC(=O)N1C[C@@H](n2nc(C#Cc3c(F)cc4c(ncn4C4CC4)c3F)c(C(N)=O)c2NC)C[C@@H]1COC(F)F [Example 156, 1-((3S,5R)-1-Acryloyl-5-((difluoromethoxy)methyl)pyrrolidin-3-yl)-3-((1-cyclopropyl-4,6-difluoro-1H-benzo[d]imidazol-5-yl)ethynyl)-5-(methylamino)-1H-pyrazole-4-carboxamide]",≤ 0.1
16,"C=CC(=O)N1C[C@@H](n2nc(C#Cc3c(F)c(F)c4c(ncn4CC)c3F)c(C(N)=O)c2NC)C[C@@H]1COC [Example 157, 3-[2-(1-Ethyl-4,6,7-trifluoro-1,3-benzodiazol-5-yl)ethynyl]-1-[(3S,5R)-5-(methoxymethyl)-1-(prop-2-enoyl)pyrrolidin-3-yl]-5-(methylamino)pyrazole-4-carboxamide]",≤ 0.1

# Continued, values first:
row,IC50 [µM],Structure (SMILES)
1,≤ 0.1,"C=CC(=O)N1CC[C@H](n2nc(C#Cc3cc4ncn(C5CC5)c4cc3F)c(C(N)=O)c2NC)C1 [Example 136, 3-[2-(1-Cyclopropyl-6-fluoro-1,3-benzodiazol-5-yl)ethynyl]-5-(methylamino)-1-[(3S)-1-(prop-2-enoyl)pyrrolidin-3-yl]pyrazole-4-carboxamide]"
2,≤ 0.1,"C=CC(=O)N1CC[C@H](n2nc(C#Cc3cc4ncn(C)c4cc3F)c(C(N)=O)c2NC)C1 [Example 139, 3-[2-(6-Fluoro-1-methyl-1,3-benzodiazol-5-yl)ethynyl]-5-(methylamino)-1-[(3S)-1-(prop-2-enoyl)pyrrolidin-3-yl]pyrazole-4-carboxamide]"
3,≤ 0.1,"C=CC(=O)N1CC[C@H](n2nc(C#Cc3cc4ncn(CC)c4c(F)c3F)c(C(N)=O)c2NC)C1 [Example 140, 3-[2-(1-Ethyl-6,7-difluoro-1,3-benzodiazol-5-yl)ethynyl]-5-(methylamino)-1-[(3S)-1-(prop-2-enoyl)pyrrolidin-3-yl]pyrazole-4-carboxamide]"
4,≤ 0.1,"C=CC(=O)N1CC[C@H](n2nc(C#Cc3cc4ncn(CC)c4c(F)c3Cl)c(C(N)=O)c2NC)C1 [Example 141, 3-[2-(6-Chloro-1-ethyl-7-fluoro-1,3-benzodiazol-5-yl)ethynyl]-5-(methylamino)-1-[(3S)-1-(prop-2-enoyl)pyrrolidin-3-yl]pyrazole-4-carboxamide]"
5,≤ 0.1,"C=CC(=O)N1CC[C@H](n2nc(C#Cc3cc4ncn(C)c4c(F)c3Cl)c(C(N)=O)c2NC)C1 [Example 142, 3-[2-(6-Chloro-7-fluoro-1-methyl-1,3-benzodiazol-5-yl)ethynyl]-5-(methylamino)-1-[(3S)-1-(prop-2-enoyl)pyrrolidin-3-yl]pyrazole-4-carboxamide]"
6,≤ 0.1,"C=CC(=O)N1CC[C@H](n2nc(C#Cc3cc4ncn(CC)c4cc3F)c(C(N)=O)c2NC)C1 [Example 143, 3-[2-(1-Ethyl-6-fluoro-1,3-benzodiazol-5-yl)ethynyl]-5-(methylamino)-1-[(3S)-1-(prop-2-enoyl)pyrrolidin-3-yl]pyrazole-4-carboxamide]"
7,≤ 0.1,"C=CC(=O)N1CC[C@H](n2nc(C#Cc3cc4ncn(C)c4cc3Cl)c(C(N)=O)c2NC)C1 [Example 144, 3-[2-(6-Chloro-1-methyl-1,3-benzodiazol-5-yl)ethynyl]-5-(methylamino)-1-[(3S)-1-(prop-2-enoyl)pyrrolidin-3-yl]pyrazole-4-carboxamide]"
8,≤ 0.1,"C=CC(=O)N1CC[C@H](n2nc(C#Cc3cc4ncn(C)c4c(F)c3F)c(C(N)=O)c2NC)C1 [Example 145, 3-[2-(6,7-Difluoro-1-methyl-1,3-benzodiazol-5-yl)ethynyl]-5-(methylamino)-1-[(3S)-1-(prop-2-enoyl)pyrrolidin-3-yl]pyrazole-4-carboxamide]"
9,≤ 0.1,"C=CC(=O)N1C[C@@H](n2nc(C#Cc3cc4ncn(C)c4cc3F)c(C(N)=O)c2NC)C[C@@H]1CF [Example 148, 3-[2-(6-Fluoro-1-methyl-1,3-benzodiazol-5-yl)ethynyl]-1-[(3S,5R)-5-(fluoromethyl)-1-(prop-2-enoyl)pyrrolidin-3-yl]-5-(methylamino)pyrazole-4-carboxamide]"
10,≤ 0.1,"C=CC(=O)N1C[C@@H](n2nc(C#Cc3cc4ncn(C5CC5)c4c(F)c3F)c(C(N)=O)c2NC)C[C@@H]1COC [Example 151, 3-[2-(1-Cyclopropy-6,7-difluoro-1,3-benzodiazol-5-yl)ethynyl]-1-[(3S,5R)-5-(methoxymethyl)-1-(prop-2-enoyl)pyrrolidin-3-yl]-5-(methylamino)pyrazole-4-carboxamide]"
